In ChEMBL document CHEMBL1150645, “A new secosterol from the Indonesian octocoral Pachyclavularia violacea” (J Nat Prod, 2002):

Key:
Assay type in all cases: functional, cell-based
SK-MEL-28 = assay: Cytotoxicity against human SK-MEL-28 cells
P388 = assay: Cytotoxicity against mouse P388 cells
A549 = assay: Cytotoxicity against human A549 cells
HT-29 = assay: Cytotoxicity against human HT-29 cells

Measured: IC50

CC(C)[C@@H](C)CC[C@@H](C)[C@H]1CC[C@@H]([C@@H]2C[C@H]3O[C@]34C[C@@H](O)CC[C@]4(C)C2=O)[C@]1(C)CCO [SECOSTEROL]
> 1 µg/mL: all assays above

CC(=O)O[C@@H]1C/C=C(/C)C[C@H]2O[C@H]3[C@@H]4[C@H]2C(C)=CC(=O)[C@@H]4[C@@H](C)CO[C@@]13C [PACHYCLAVULARIAENONE B]
> 1 µg/mL: all assays above
